Test [1] relates to Stallion named IKE's semen (sperm cells). Kind of test: Post-thaw motility of frozen stallion semen in five extenders (Sperm Vision analysis). The test is classed as cell-based. As to conditions: ergothioneine added to traditional semen extender compositions. The protocol: The resulting sperm pellet was then split 5 ways and resuspended with the five different extenders tested. DMSO and EQUIPRO® cryoguards were frozen right away. […] Semen was frozen using the ice cube freezer. Semen straws were thawed at 37° C. for 1 minute. Semen was diluted at one to ten in EQUIPRO® concentrate to analyze using sperm vision. All five extenders were measured for motility (total motility and forward progressive motility, FPM) using Sperm Vision® software, a high-resolution, rapid scan digital camera on a plain glass slide. Measurements were taken at 0 min post thaw, 30 min and 60 min post thaw.

A further test relates to liver tissue of rats. As to conditions: exogenous L-ergothioneine; cited from earlier work.
The next test deals with mouse liver. As to conditions: cited from earlier work.

Molecules are shown by their SMILES.

With `C[N+](C)(C)[C@@H](Cc1c[nH]c(=S)[nH]1)C(=O)[O-]` [ergothioneine, L-ergothioneine], in test [1], the sperm cell survival entry was “significant improvement” and the surviving cell motility entry is “significant improvement”. The “lipid peroxidation by toxic compounds” value in the test with liver tissue of rats is reported as “prevent lipid peroxidation”. Further, in the test with mouse liver, the LPO formation entry is given as “inhibited LPO formation” and the “decomposition of existing LPO” value is “enhanced the decomposition of existing LPO”.

Source of the values: patent publication US20100227307A1, “ERGOTHIONEINE AND/OR ITS DERIVATIVES AS A CELL PRESERVATIVE” (priority 2007, published 2010).
